Experimental data published in US20160066572A1, “METHOD OF SANITIZING EDIBLE SEEDS, PARTICULARLY MUCILAGE PRODUCING SEEDS” (AGRI-NEO INC., priority 2013, published 2016).

What was measured:
[1] = test system: Total count Aerobic bacteria; assay: Total aerobic count on seeds, grains and spices sprayed with sanitizing solutions (Example 1); assay type: cell-based
Description: (§1) Seeds were mechanically cleaned and spread in stainless steel containers. Each 100 grams seeds were sprayed with 4 ml total solutions descried above via conventional trigger vaporizer. This solution is equivalent to 40 L disinfecting solution total sprayed on 1-tonne seeds. Seeds, grains and spices were selected to represent all families and types of seeds, grains and spices. Another criterium was to select seeds and grains contaminated with a high count of total aerobic bacteria, yeast, mold, E. coli, Salmonella sp. and other pathogenic microorganisms.
(§2) Seeds, grains and spices treated were: • Whole dried pea, • Split pea dried, • Pea fiber, • Vanilla, • Chia, • Sprouted flax and chia, • Flax, • Hemp, and • Black pepper seeds

yeast and mold (Y&M) = assay: Y&M count on seeds, grains and spices sprayed with sanitizing solutions (Example 1); assay type: cell-based; conditions: 40 L/tonne; for Y&M, Av: average; for Y&M, n1: replicate n1; for Y&M, n2: replicate n2
Description: as §1, §2

chia and flax seeds = assay: Mucilage release from mucilaginous seeds after treatment; conditions: alcohol in the aqueous sanitizing composition
Description: A minimum of 4 ml of the treatment solution was sprayed, using a handheld atomizing sprayer while mixing, on 100 gram samples of chia and flax seeds. The samples were allowed to air dry and checked for mucilage.
A minimum of 4 ml of the treatment solution was sprayed, using a handheld atomizing sprayer while mixing, on 100-gram samples of chia and flax seeds. The samples were allowed to air dry and checked for mucilage.

[2] = whole dried pea, 40 L per 1 tonne

CCO [2- Alcohol - ethanol, ethanol]
bactericidal effect (conclusion) ([1]; black pepper, 40 L per 1 tonne): not a strong bactericidal agent | Total count Aerobic CFU/g bacteria, Av ([1]; black pepper, 40 L/tonne, average): Av = 1 million | Total count Aerobic CFU/g bacteria, Av ([1]; chia seeds, 40 L/tonne, average): Av = 510,000 CFU/g | Total count Aerobic CFU/g bacteria, n1 ([1]; chia seeds, 40 L/tonne, replicate n1): n1 = 520,000 CFU/g | Total count Aerobic CFU/g bacteria, n2 ([1]; chia seeds, 40 L/tonne, replicate n2): n2 = 500,000 CFU/g | Total count Aerobic CFU/g bacteria, Av ([1]; flax seeds, 40 L/tonne, average): Av = 2 millions | Total count Aerobic CFU/g bacteria, n1 ([1]; flax seeds, 40 L/tonne, replicate n1): n1 = 1.8 millions | Total count Aerobic CFU/g bacteria, n2 ([1]; flax seeds, 40 L/tonne, replicate n2): n2 = 2.2 millions | bactericidal effect (conclusion) ([1]; hemp, 40 L per 1 tonne): not a strong bactericidal agent | Total count Aerobic CFU/g bacteria, Av ([1]; hemp, 40 L/tonne, average): Av = 1 million | Total count Aerobic CFU/g bacteria, n1 ([1]; hemp, 40 L/tonne, replicate n1): n1 = 800,000 CFU/g | Total count Aerobic CFU/g bacteria, n2 ([1]; hemp, 40 L/tonne, replicate n2): n2 = 1.2 millions | bactericidal effect (conclusion) ([1]; pea fiber, 40 L per 1 tonne): not a strong bactericidal agent | Total count Aerobic CFU/g bacteria, Av ([1]; pea fiber, 40 L/tonne, average): Av = 700,000 CFU/g | Total count Aerobic CFU/g bacteria, n1 ([1]; pea fiber, 40 L/tonne, replicate n1): n1 = 500,000 CFU/g | Total count Aerobic CFU/g bacteria, n2 ([1]; pea fiber, 40 L/tonne, replicate n2): n2 = 900,000 CFU/g | bactericidal effect (conclusion) ([1]; split pea, 40 L per 1 tonne): not a strong bactericidal agent | bactericidal effect (conclusion) ([1]; sprouted flax and chia): bactericidal agent but not very strong | Total count Aerobic CFU/g bacteria, Av ([1]; sprouted flax and chia, 40 L/tonne, average): Av = 600,000 CFU/g | Total count Aerobic CFU/g bacteria, n1 ([1]; sprouted flax and chia, 40 L/tonne, replicate n1): n1 = 550,000 CFU/g | Total count Aerobic CFU/g bacteria, n2 ([1]; sprouted flax and chia, 40 L/tonne, replicate n2): n2 = 650,000 CFU/g | bactericidal effect (conclusion) ([1]; vanilla, 40 L per 1 tonne): not a strong bactericidal agent | Total count Aerobic CFU/g bacteria, Av ([1]; vanilla, 40 L/tonne, average): Av = 1 million | Total count Aerobic CFU/g bacteria, n1 ([1]; vanilla, 40 L/tonne, replicate n1): n1 = 1 million | Total count Aerobic CFU/g bacteria, n2 ([1]; vanilla, 40 L/tonne, replicate n2): n2 = 1 million | bactericidal effect (conclusion) [1, 2]: not a strong bactericidal agent | Total count Aerobic - CFU/g bacteria, Av ([1]; whole dried pea, 40 L/tonne, average): Av = 900,000 CFU/g | Total count Aerobic - CFU/g bacteria, n1 ([1]; whole dried pea, 40 L/tonne, replicate n1): n1 = 800,000 CFU/g | Total count Aerobic - CFU/g bacteria, n2 ([1]; whole dried pea, 40 L/tonne, replicate n2): n2 = 1 million | Total count Aerobic CFU/g bacteria, Av ([1]; whole split pea, 40 L/tonne, average): Av = 700,000 CFU/g | Total count Aerobic CFU/g bacteria, n1 ([1]; whole split pea, 40 L/tonne, replicate n1): n1 = 700,000 CFU/g | Total count Aerobic CFU/g bacteria, n2 ([1]; whole split pea, 40 L/tonne, replicate n2): n2 = 700,000 CFU/g | Y&M, Av (yeast and mold (Y&M); black pepper): Av = 1,000 Y&M CFU/g | Y&M, Av (yeast and mold (Y&M); chia seeds): Av = 10,000 Y&M CFU/g | Y&M, n1 (yeast and mold (Y&M); chia seeds): n1 = 10,000/n2 = 10,000 CFU/g | Y&M, n2 (yeast and mold (Y&M); chia seeds): n1 = 10,000/n2 = 10,000 CFU/g | Y&M, Av (yeast and mold (Y&M); flax seeds): Av = 1,000 Y&M CFU/g | Y&M, n1 (yeast and mold (Y&M); flax seeds): n1 = 1,000/n2 = 1,000 CFU/g | Y&M, n2 (yeast and mold (Y&M); flax seeds): n1 = 1,000/n2 = 1,000 CFU/g | Y&M, Av (yeast and mold (Y&M); hemp): Av = 1,000 Y&M CFU/g | Y&M, n1 (yeast and mold (Y&M); hemp): n1 = 1000/n2 = 1000 CFU/g | Y&M, n2 (yeast and mold (Y&M); hemp): n1 = 1000/n2 = 1000 CFU/g | Y&M, Av (yeast and mold (Y&M); pea fiber): Y&M not detected | Y&M, n1 (yeast and mold (Y&M); pea fiber): n1, n2 not detected | Y&M, n2 (yeast and mold (Y&M); pea fiber): n1, n2 not detected | Y&M, Av (yeast and mold (Y&M); sprouted flax and chia): Av = 1,000 Y&M CFU/g | Y&M, n1 (yeast and mold (Y&M); sprouted flax and chia): n1 = 1,000/n2 = 1,000 CFU/g | Y&M, n2 (yeast and mold (Y&M); sprouted flax and chia): n1 = 1,000/n2 = 1,000 CFU/g | Y&M, Av (yeast and mold (Y&M); vanilla): Av = 1,000 Y&M CFU/g | Y&M, n1 (yeast and mold (Y&M); vanilla): n1 = 1000/n2 = 1000 CFU/g | Y&M, n2 (yeast and mold (Y&M); vanilla): n1 = 1000/n2 = 1000 CFU/g | Y&M, Av (yeast and mold (Y&M); whole dried pea): Y&M not detected | Y&M, n1 (yeast and mold (Y&M); whole dried pea): n1, n2 not detected | Y&M, n2 (yeast and mold (Y&M); whole dried pea): n1, n2 not detected | Y&M, Av (yeast and mold (Y&M); whole split pea): Y&M not detected | Y&M, n1 (yeast and mold (Y&M); whole split pea): n1, n2 not detected | Y&M, n2 (yeast and mold (Y&M); whole split pea): n1, n2 not detected

CC(=O)OO [Peracetic acid]
bactericidal effect (conclusion) ([1]; black pepper, 40 L per 1 tonne): strong bactericidal agent | bactericidal effect (conclusion) ([1]; hemp, 40 L per 1 tonne): strong bactericidal agent | bactericidal effect (conclusion) ([1]; pea fiber, 40 L per 1 tonne): strong bactericidal agent | bactericidal effect (conclusion) ([1]; split pea, 40 L per 1 tonne): strong bactericidal agent | bactericidal effect (conclusion) ([1]; vanilla, 40 L per 1 tonne): strong bactericidal agent | bactericidal effect (conclusion) [1, 2]: strong bactericidal agent

CCO [ethanol]
effective amount (concentration) required to suppress mucilage release (chia and flax seeds): about 15 % by volume

CC(O)CO (centres unmarked) [propylene glycol]
effective amount (concentration) required to suppress mucilage release (chia and flax seeds): about 13 % by volume
